The values below come from patent publication US4472286A, “Perfluoroalkyl anion/perfluoroalkyl cation ion pair complexes” (Ciba-Geigy Corporation, priority 1983, dated 1984).

Series [1] is described as follows: Solubility in water of Rf.Rf complexes and precursor surfactants. It is filed as physicochemical. As for the experimental part:
The following Table 1 illustrates how a selected type of an Rf Rf ion-pair complex differs in its properties from the precursor anionic and cationic fluorochemical surfactants. Besides the differences shown in Table 1 (solubility, melting point, surface tension), Rf Rf ion-pair complexes also differ in many other properties from their precursor surfactants.
(§1) The products of Examples 1, 2 and 4 were tested for their respective solubility in distilled water.

Series [2] in a line: Surface tension of aqueous solutions (ASTM D-1331-56). It is filed as physicochemical. The following applies: for Surface tension, anionic surfactant: Table 5, 0.01%.
A short description of series [3]: Micellar behavior in distilled water. Format: physicochemical. The procedure: as §1
The conditions of series [4]: background section; cited from earlier work.

For the compound “3-(1,1,2,2-tetrahydroperfluorooctylthio)-2-hydroxypropyltrimethylammonium 2-methyl-2-(3-[1,1,2,2-tetrahydroperfluorooctylthio]propanesulfonate [Example 1]”, the “solubility in distilled water” value in series [1] is given as 5×10^-3 weight %. Moreover, the “surface tension of concentrated solution” value in series [2] (concentrated solution in distilled water) is given as 16.9 dynes/cm. In addition, in series [3], the micellar behavior result is on record as “None”. As to `O=S(=O)(O)C(F)(F)C(F)(F)C(F)(F)C(F)(F)C(F)(F)C(F)(F)C(F)(F)C(F)(F)F` [FC-95], the “Surface tension, anionic surfactant alone” value in series [2] (Table 4, at 0.01% in water) is on record as 42.2. For the same compound, the “Surface tension, anionic surfactant” value in series [2] is on record as 42.2. `CCN(CC(=O)O)S(=O)(=O)C(F)(F)C(F)(F)C(F)(F)C(F)(F)C(F)(F)C(F)(F)C(F)(F)C(F)(F)F` [FC-128]: the “Surface tension, anionic surfactant alone” value in series [2] (Table 4, at 0.01% in water) is on record as 24.7. Besides, in series [2], the “Surface tension, anionic surfactant” value stood at 24.7. Regarding `C[N+](C)(C)CCCNS(=O)(=O)C(F)(F)C(F)(F)C(F)(F)C(F)(F)C(F)(F)C(F)(F)C(F)(F)C(F)(F)F` [FC-134], the “Surface tension, cationic surfactant alone” value in series [2] (Table 4, at 0.01% in water) is given as 17.8.

Regarding decyltrimethylammonium decyl sulfate, the “surface tension of aqueous solutions (literature / general knowledge)” value in series [4] is ≥ 22 dynes/cm.
